In patent US10202404B2, “Polycyclic pyridone derivative having integrase inhibitory activity” (Shionogi & Co., Ltd., priority 2014, dated 2019):

System: HIV
Experiment: Anti-HIV activity (MT-4 cells, MTT)
Format: cell-based
Details: 50% HIV inhibition concentration; MT-4 cells infected with HIV, incubated 4 days, MTT readout
Description: Previously, a series of two-fold dilution on test samples were carried out in a 96-well plate (50 μL/well). Two plates were made for measuring anti-HIV activity and measuring cytotoxicity. For each agent, measurement in duplicate was carried out. An MT-4 cell suspension of 2.5×10^5/mL was dispensed at 100 μL/well onto the 96-well plate containing the test samples. An HIV virus solution was dispensed at 50 μL/well onto the 96-well plate containing the test samples and the cell. To the plate for measuring cytotoxicity, a culture solution was dispensed at 50 μL/well. It was mixed by a plate mixer, and then incubated in a CO2 incubator for 4 days. […] Thirty microliters of a MTT (3-(4,5-dimethylthiazol-2-yl)-2,5-diphenyltetrazolium bromide) solution was dispensed to each well.
A reaction was allowed to occur in a CO2 incubator for an hour. From each well, 150 μL of the supernatant was removed such that cells are not sucked. One-hundred and fifty microliters of a cell lysis solution was added thereto, and then it was mixed well by a plate mixer until the whole cells are lysed. The mixed 96-well plates were measured by a microplate reader at two wavelengths, 560 nm/690 nm. Based on the following calculation formula, 50% HIV inhibition concentration (EC50) was calculated. EC50=10Z Z=(50%−Low %)/(High %−Low %)×{log(High conc.)−log(Low conc.)}+log(Low conc.) Based on the following calculation formula, 50% cytotoxic concentration (CC50) was calculated. CC50=10Z Z=(50%−Low %)/(High %−Low %)×{log(High conc.)−log(Low conc.)}+log(Low conc.) Based on the following calculation formula, selectivity index (ST) was calculated. SI=CC50/EC50 (Result)

Going from `C[C@@H]1CCO[C@H]2Cn3cc(-c4cnc(Cc5ccc(F)cc5F)s4)c(=O)c(O)c3C(=O)N12` [Compound A-40] to `C[C@@H]1CCO[C@H]2Cn3cc(-c4nnc(Cc5ccc(F)cc5F)[nH]4)c(=O)c(O)c3C(=O)N12` [Compound A-52], the EC50 rises from 11 nM to 18 nM (1.6-fold).

`C[C@@H]1CCO[C@H]2Cn3cc(-c4cn(Cc5ccc(F)cc5F)cn4)c(=O)c(O)c3C(=O)N12` [Compound A-49] and `C[C@@H]1CCO[C@H]2Cn3cc(-c4nnc(Oc5ccc(F)cc5F)s4)c(=O)c(O)c3C(=O)N12` [Compound A-51] are within 1.5-fold of each other in EC50: 10 nM for the first, 6.8 nM for the second.

Same assay, conditions: Human immunodeficiency virus 1, MT4, 96 h; 50% HIV inhibition concentration; MT-4 cells infected with HIV, incubated 4 days, MTT readout

`C[C@@H]1CCO[C@H]2Cn3cc(-c4ncc(Cc5cccc(Cl)c5F)s4)c(=O)c(O)c3C(=O)N12` [Compound A-1] and `C[C@H]1CCO[C@@H]2Cn3cc(-c4ncc(Cc5cccc(Cl)c5F)s4)c(=O)c(O)c3C(=O)N12` [Compound A-11] are within 1.5-fold of each other in EC50: 7.8 nM for the first, 8.8 nM for the second.

`C[C@H]1CO[C@@H]2Cn3cc(-c4ncc(Cc5cccc(Cl)c5F)s4)c(=O)c(O)c3C(=O)N12` [Compound A-2] and `C[C@@H]1CO[C@H]2Cn3cc(-c4ncc(Cc5cccc(Cl)c5F)s4)c(=O)c(O)c3C(=O)N12` [Compound A-3] are within 1.5-fold of each other in EC50: 2.5 nM for the first, 3.7 nM for the second.

`C[C@@H]1CCN2C(=O)c3c(O)c(=O)c(-c4ncc(Cc5cccc(Cl)c5F)s4)cn3C[C@@H]2O1` [Compound A-5] and `C[C@@H]1CO[C@H]2Cn3cc(-c4ncc(Cc5cccc(Cl)c5F)s4)c(=O)c(O)c3C(=O)N2C1` [Compound A-9] are within 1.5-fold of each other in EC50: 8 nM for the first, 7.1 nM for the second.

Compared with `C[C@H]1CO[C@@H]2Cn3cc(-c4ncc(Cc5ccc(F)cc5F)s4)c(=O)c(O)c3C(=O)N12` [Compound A-6], `C[C@@H]1CO[C@H]2Cn3cc(-c4ncc(Cc5ccc(F)cc5F)s4)c(=O)c(O)c3C(=O)N12` [Compound A-7] is 3.4-fold higher in EC50: 1.9 nM for the first, 6.5 nM for the second.

First: C[C@@H]1CO[C@H]2Cn3cc(-c4ncc(Cc5ccc(F)cc5F)s4)c(=O)c(O)c3C(=O)N2C1 [Compound A-8]
Second: C[C@@H]1CO[C@H]2Cn3cc(-c4nnc(Cc5ccc(F)cc5F)s4)c(=O)c(O)c3C(=O)N2C1 [Compound A-21]
The EC50 of the first is 3.5-fold higher: 3.5 nM for the first, 1 nM for the second. The second is the more potent here.

`C[C@H]1CCO[C@@H]2Cn3cc(-c4ncc(Cc5ccc(F)cc5F)s4)c(=O)c(O)c3C(=O)N12` [Compound A-10] and `C[C@@H]1CCO[C@@H]2Cn3cc(-c4ncc(Cc5ccc(F)cc5F)s4)c(=O)c(O)c3C(=O)N12` [Compound A-13] are within 1.5-fold of each other in EC50: 4.4 nM for the first, 6 nM for the second.

Going from `C[C@@H]1CCO[C@H]2Cn3cc(-c4ncc(Cc5c(F)cc(F)cc5F)s4)c(=O)c(O)c3C(=O)N12` [Compound A-12] to `C[C@H]1CO[C@@H]2Cn3cc(-c4ncc(Cc5c(F)cc(F)cc5F)s4)c(=O)c(O)c3C(=O)N12` [Compound A-14], the EC50 falls from 4.9 nM to 1.2 nM (4.1-fold).

Compared with `C[C@H]1CO[C@@H]2Cn3cc(-c4nnc(Cc5ccc(F)cc5F)s4)c(=O)c(O)c3C(=O)N12` [Compound A-15], `C[C@@H]1CO[C@H]2Cn3cc(-c4nnc(Cc5ccc(F)cc5F)s4)c(=O)c(O)c3C(=O)N12` [Compound A-19] is 2.8-fold higher in EC50: 1.1 nM for the first, 3.1 nM for the second. The first is the more potent here.

`C[C@@H]1CCN2C(=O)c3c(O)c(=O)c(-c4nnc(Cc5ccc(F)cc5F)s4)cn3C[C@@H]2O1` [Compound A-16] and `O=C1c2c(O)c(=O)c(-c3nnc(Cc4ccc(F)cc4F)s3)cn2C[C@@H]2N1C[C@H]1CCCN12` [Compound A-55] are within 1.5-fold of each other in EC50: 2.1 nM for the first, 1.7 nM for the second.

`C[C@@H]1CCO[C@H]2Cn3cc(-c4nnc(Cc5cccc(Cl)c5F)s4)c(=O)c(O)c3C(=O)N12` [Compound A-17] and `C[C@H]1CCO[C@@H]2Cn3cc(-c4nnc(Cc5cccc(Cl)c5F)s4)c(=O)c(O)c3C(=O)N12` [Compound A-28] are within 1.5-fold of each other in EC50: 2.3 nM for the first, 3.3 nM for the second.

`C[C@H]1CO[C@@H]2Cn3cc(-c4nnc(Cc5cccc(Cl)c5F)s4)c(=O)c(O)c3C(=O)N12` [Compound A-18] and `C[C@@H]1CO[C@H]2Cn3cc(-c4nnc(Cc5cccc(Cl)c5F)s4)c(=O)c(O)c3C(=O)N12` [Compound A-20] are within 1.5-fold of each other in EC50: 2.3 nM for the first, 3 nM for the second.

`C[C@@H]1CO[C@H]2Cn3cc(-c4nnc(Cc5cccc(Cl)c5F)s4)c(=O)c(O)c3C(=O)N2C1` [Compound A-22] and `O=C1c2c(O)c(=O)c(-c3nnc(Cc4cccc(Cl)c4F)s3)cn2C[C@@H]2N1C[C@H]1CCCN12` [Compound A-54] are within 1.5-fold of each other in EC50: 1.7 nM for the first, 1.6 nM for the second.

Going from `C[C@@H]1CCO[C@H]2Cn3cc(-c4nnc(Cc5c(F)cc(F)cc5F)s4)c(=O)c(O)c3C(=O)N12` [Compound A-23] to `C[C@@H]1CCO[C@H]2Cn3cc(-c4nnc(Cc5cc(F)c(F)cc5F)s4)c(=O)c(O)c3C(=O)N12` [Compound A-24], the EC50 rises from 2.6 nM to 4.2 nM (1.6-fold).

`C[C@@H]1CCO[C@H]2Cn3cc(-c4nnc(Cc5c(F)ccc(Cl)c5F)s4)c(=O)c(O)c3C(=O)N12` [Compound A-25] and `C[C@@H]1CCO[C@H]2Cn3cc(-c4nnc(Cc5c(Cl)ccc(Cl)c5F)s4)c(=O)c(O)c3C(=O)N12` [Compound A-27] are within 1.5-fold of each other in EC50: 3.4 nM for the first, 3.5 nM for the second.

Going from `C[C@@H]1CCO[C@H]2Cn3cc(-c4nnc(Cc5ccc(F)c(Cl)c5F)s4)c(=O)c(O)c3C(=O)N12` [Compound A-26] to `C[C@@H]1CCO[C@H]2Cn3cc(-c4nnc(Cc5ccc(F)c(F)c5F)s4)c(=O)c(O)c3C(=O)N12` [Compound A-31], the EC50 falls from 3.8 nM to 2.3 nM (1.7-fold). The second is the more potent here.

Compared with `COc1c(F)ccc(Cc2nnc(-c3cn4c(c(O)c3=O)C(=O)N3[C@H](C)CCO[C@H]3C4)s2)c1F` [Compound A-32], `C[C@@H]1CCO[C@H]2Cn3cc(-c4nnc(Cc5ccc(F)c(Cl)c5)s4)c(=O)c(O)c3C(=O)N12` [Compound A-33] is 4.8-fold lower in EC50: 12 nM for the first, 2.5 nM for the second. The second is the more potent here.

First: C[C@@H]1CCO[C@H]2Cn3cc(-c4nnc(Cc5cc(C(F)(F)F)cc(Cl)c5F)s4)c(=O)c(O)c3C(=O)N12 [Compound A-34]
Second: C[C@@H]1CCO[C@H]2Cn3cc(-c4nnc(C(F)(F)c5cccc(Cl)c5F)s4)c(=O)c(O)c3C(=O)N12 [Compound A-43]
The EC50 of the first is 3.6-fold higher: 13 nM for the first, 3.6 nM for the second. The second is the more potent here.

Going from `C[C@H]1CO[C@@H]2Cn3cc(-c4cnc(Cc5ccc(F)cc5F)s4)c(=O)c(O)c3C(=O)N12` [Compound A-42] to `Cc1nc(-c2cn3c(c(O)c2=O)C(=O)N2[C@@H](C)CO[C@@H]2C3)sc1Cc1ccc(F)cc1F` [Compound A-47], the EC50 falls from 10 nM to 3.4 nM (2.9-fold). The second is the more potent here.

Compared with `C[C@H]1CO[C@@H]2Cn3cc(-c4cn(Cc5ccc(F)cc5F)cn4)c(=O)c(O)c3C(=O)N12` [Compound A-44], `C[C@@H]1CCO[C@H]2Cn3cc(-c4cn(Cc5ccc(F)cc5F)cn4)c(=O)c(O)c3C(=O)N12` [Compound A-64] is 3.2-fold lower in EC50: 5.1 nM for the first, 1.6 nM for the second. The second is the more potent here.

Going from `Cc1nc(-c2cn3c(c(O)c2=O)C(=O)N2[C@H](C)CCO[C@H]2C3)sc1Cc1ccc(F)cc1F` [Compound A-45] to `C[C@@H]1CCO[C@H]2Cn3cc(-c4nc(C(F)(F)F)c(Cc5ccc(F)cc5F)s4)c(=O)c(O)c3C(=O)N12` [Compound A-48], the EC50 rises from 4.1 nM to 14 nM (3.4-fold). The first is the more potent here.

`Cc1nc(-c2cn3c(c(O)c2=O)C(=O)N2[C@@H](C)CO[C@@H]2C3)sc1Cc1cccc(Cl)c1F` [Compound A-46] and `C[C@H]1CCN(C2CC2)[C@@H]2Cn3cc(-c4nnc(Cc5cccc(Cl)c5F)s4)c(=O)c(O)c3C(=O)N12` [Compound A-56] are within 1.5-fold of each other in EC50: 3.9 nM for the first, 4 nM for the second.

`C[C@@H]1CCO[C@H]2Cn3cc(-c4cn(Cc5cccc(Cl)c5F)cn4)c(=O)c(O)c3C(=O)N12` [Compound A-50] and `Cc1nc(-c2cn3c(c(O)c2=O)C(=O)N2[C@H](C)CCO[C@H]2C3)cn1Cc1ccc(F)cc1F` [Compound A-59] are within 1.5-fold of each other in EC50: 12 nM for the first, 9.5 nM for the second.

Going from `C[C@H]1N2C(=O)c3c(O)c(=O)c(-c4nnc(Cc5ccc(F)cc5F)s4)cn3C[C@@H]2OCC12CC2` [Compound A-57] to `COC[C@@H]1CCO[C@H]2Cn3cc(-c4nnc(Cc5ccc(F)cc5F)s4)c(=O)c(O)c3C(=O)N12` [Compound A-67], the EC50 rises from 1.7 nM to 4.2 nM (2.5-fold). The first is the more potent here.

Going from `O=C1c2c(O)c(=O)c(-c3nnc(Cc4ccc(F)cc4F)s3)cn2CC2OCC3(COC3)CN12` (stereo not drawn) [Compound A-58] to `O=C1c2c(O)c(=O)c(-c3nnc(Cc4ccc(F)cc4F)s3)cn2C[C@@H]2O[C@H]3CCC[C@H]3N12` [Compound A-63], the EC50 falls from 10 nM to 2 nM (5-fold). The second is the more potent here.

`C[C@H]1CN(C2CC2)[C@@H]2Cn3cc(-c4nnc(Cc5ccc(F)cc5F)s4)c(=O)c(O)c3C(=O)N12` [Compound A-60] and `C[C@H]1[C@H]2CCCN2[C@@H]2Cn3cc(-c4nnc(Cc5ccc(F)cc5F)s4)c(=O)c(O)c3C(=O)N12` [Compound A-62] are within 1.5-fold of each other in EC50: 2 nM for the first, 1.6 nM for the second.

`COCCN1CC[C@H](C)N2C(=O)c3c(O)c(=O)c(-c4nnc(Cc5ccc(F)cc5F)s4)cn3C[C@@H]12` [Compound A-61] and `O=C1c2c(O)c(=O)c(-c3nnc(Cc4ccc(F)cc4F)s3)cn2C[C@H]2O[C@@H]3CC[C@@H](C3)N12` [Compound A-65] are within 1.5-fold of each other in EC50: 4.1 nM for the first, 4.2 nM for the second.

`O=C1c2c(O)c(=O)c(-c3nnc(Cc4ccc(F)cc4F)s3)cn2C[C@@H]2O[C@H]3CC[C@H](C3)N12` [Compound A-66] was tested, and the EC50 was 7.2 nM.
